In patent publication US20080070946A1, “Hydroxymethylbenzothiazoles Amides” (AstraZeneca AB, priority 2004, published 2008):

How the values were obtained:
hVR1 = molecular target: T1, hVR1 (Homo sapiens, UniProt Q8NER1); assay: hVR1 FLIPR (Fluorometric Image Plate Reader) screening assay, IC50 determination; type: cell-based; conditions: CHO cells stably expressing hVR1
T1 construct: expressed in transfected cells
Protocol: 1. hVR1 FLIPR (Fluorometric Image Plate Reader) Screening Assay
Transfected CHO cells, stably expressing hVR1 (15,000 cells/well) are seeded in 50 ul media in a black clear bottom 384 plate (Greiner) and grown in a humidified incubator (37° C., 2% CO2), 24-30 hours prior to experiment.
Subsequently, the media is removed from the cell plate by inversion and 2 μM Fluo-4 is added using a multidrop (Labsystems). Following the 40 minutes dye incubation in the dark at 37° C. and 2% CO2, the extracellular dye present is washed away using an EMBLA (Scatron), leaving the cells in 40 ul of assay buffer (1× HBSS, 10 mM D-Glucose, 1 mM CaCl2, 10 mM HEPES, 10×7.5% NaHCO3 and 2.5 mM Probenecid).
FLIPR Assay—IC50 Determination Protocol
For IC50 determinations the fluorescence is read using FLIPR filter 1 (em […]). A cellular baseline recording is taken for 30 seconds, followed by a 20 μl addition of 10, titrated half-log concentrations of the test compound, yielding cellular concentration ranging from 3 μM to 0.1 nM. Data is collected every 2 seconds for a further 5 minutes prior to the addition of a VR1 agonist solution: either 50 nM solution of capsaicin or MES (2-[N-morpholino]ethanesulfonic acid) buffer (pH 5.2), by the FLIPR pipettor. The FLIPR continues to collect data for a further 4 minutes. Compounds having antagonistic properties against the hVR1 will inhibit the increase in intracellular calcium in response to the capsaicin addition. This consequently leading to a reduction in fluorescence signal and providing a reduced fluorescence reading, compared with no compound, buffer controls. Data is exported by the FLIPR program as a sum of fluorescence calculated under the curve upon the addition of capsaicin. Maximum inhibition, Hill slope and IC50 data for each compound are generated.

[1] = Metabolic stability in rat hepatocytes (intrinsic clearance); type: in vitro ADME; conditions: male, Sprague-Dawley, freshly isolated rat hepatocytes, read-out: rClint hep
Protocol: Metabolic Stability in Rat Hepatocytes
Cells source: in house fresh isolated rat hepatocytes from male sprague-Dawley.
1 μM of compound incubated in Krebs-Heinsleit buffer with 1×10^6 cells in 37° C. for 0, 15, 30, 60 and 90 min. A total volume of each incubation was 100 μL containing 0.1% DMSO. The reaction was stopped by adding 100 μL acetonitrile.
After reaction was stopped. The sample was centrifuged at 1900 g for 5 min. Supernatant was transferred to a clean tube for analysis.

T1 sequence (Q8NER1 whole entry): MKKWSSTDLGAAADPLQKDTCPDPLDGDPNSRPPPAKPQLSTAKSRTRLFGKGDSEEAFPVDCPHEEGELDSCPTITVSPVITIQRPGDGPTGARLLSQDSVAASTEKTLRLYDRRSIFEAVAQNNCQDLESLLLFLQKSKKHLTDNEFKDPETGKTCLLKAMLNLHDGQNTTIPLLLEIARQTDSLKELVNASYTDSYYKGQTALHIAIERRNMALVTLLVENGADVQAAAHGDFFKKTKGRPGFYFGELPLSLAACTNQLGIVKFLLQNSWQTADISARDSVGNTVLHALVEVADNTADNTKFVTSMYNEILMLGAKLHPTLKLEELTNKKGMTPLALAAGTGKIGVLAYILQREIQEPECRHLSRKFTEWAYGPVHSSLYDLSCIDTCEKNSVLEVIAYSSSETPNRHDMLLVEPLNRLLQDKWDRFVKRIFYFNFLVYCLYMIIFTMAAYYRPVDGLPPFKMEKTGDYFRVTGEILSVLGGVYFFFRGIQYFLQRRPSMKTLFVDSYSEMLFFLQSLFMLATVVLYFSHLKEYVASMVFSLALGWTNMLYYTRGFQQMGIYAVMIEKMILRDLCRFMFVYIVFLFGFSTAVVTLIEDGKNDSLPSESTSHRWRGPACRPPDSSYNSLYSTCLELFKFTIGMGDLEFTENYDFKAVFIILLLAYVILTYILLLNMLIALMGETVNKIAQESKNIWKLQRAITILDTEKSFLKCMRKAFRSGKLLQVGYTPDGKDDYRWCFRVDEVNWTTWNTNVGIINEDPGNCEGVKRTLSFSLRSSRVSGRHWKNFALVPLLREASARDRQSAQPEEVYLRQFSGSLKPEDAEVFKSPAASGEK

SMILES	IC50 (hVR1; agonist capsaicin)	Hepatocyte intrinsic clearance at 1 μM [1]	IC50 (hVR1; agonist pH 5.2 buffer)
O=C(Nc1ccc2sc(CO)nc2c1)c1ccc(N2CCCCC2)nc1 [Example 9, N-[2-(hydroxymethyl)-1,3-benzothiazol-5-yl]-6-piperidin-1-ylnicotinamide]	86 nM	–	–
Cc1cc(OC(C)(C)C)ccc1C(=O)Nc1ccc2sc(CO)nc2c1 [Example 23, 4-tert-butoxy-N-[2-(hydroxymethyl)-1,3-benzothiazol-5-yl]-2-methylbenzamide]	59 nM	22 µL/min/mg	–
O=C(Nc1ccc2sc(CO)nc2c1)c1ccc(C2CCCCC2)cc1 [Example 6, 4-Cyclohexyl-N-[2-(hydroxymethyl)-1,3-benzothiazol-5-yl]benzamide]	23 nM	–	–
CN(C)c1ccc(C(=O)Nc2ccc3sc(CO)nc3c2)c2ccccc12 [Example 10, 4-(dimethylamino)-N-[2-(hydroxymethyl)-1,3-benzothiazol-5-yl]-1-naphthamide]	54 nM	14 µL/min/mg	–
O=C(Nc1ccc2sc(CO)nc2c1)c1ccc(C(F)(F)F)nc1 [Example 8, N-[2-(hydroxymethyl)-1,3-benzothiazol-5-yl]-6-(trifluoromethyl)nicotinamide]	–	–	417 nM
O=C(Nc1ccc2sc(CO)nc2c1)c1ccc(OC(F)(F)C(F)F)cc1 [Example 5, N-[2-(hydroxymethyl)-1,3-benzothiazol-5-yl]-4-(1,1,2,2-tetrafluoroethoxy)benzamide]	8 nM	–	–
O=C(Nc1ccc2sc(CO)nc2c1)c1ccc(C(F)(F)F)c(F)c1 [Example 7, 3-Fluoro-N-[2-(hydroxymethyl)-1,3-benzothiazol-5-yl]-4-(trifluoromethyl)benzamide]	4 nM	–	–
Cc1cc(OC(C)C)ccc1C(=O)Nc1ccc2sc(CO)nc2c1 [Example 24, N-[2-(hydroxymethyl)-1,3-benzothiazol-5-yl]-4-isopropoxy-2-methylbenzamide]	47 nM	10 µL/min/mg	–

Now from value to compound:

IC50 (hVR1; agonist capsaicin)	Hepatocyte intrinsic clearance at 1 μM [1]	IC50 (hVR1; agonist pH 5.2 buffer)	SMILES
67 nM	11.8 µL/min/mg	–	Cc1cc(OC(C)C)ccc1C(=O)Nc1ccc2sc(CO)nc2c1F [Example 40, N-[4-fluoro-2-(hydroxymethyl)-1,3-benzothiazol-5-yl]-4-isopropoxy-2-methylbenzamide]
1950 nM	–	–	Cc1nc(C(F)(F)F)ccc1C(=O)Nc1ccc2sc(CO)nc2c1F [Example 41, N-[4-fluoro-2-(hydroxymethyl)-1,3-benzothiazol-5-yl]-2-methyl-6-(trifluoromethyl)nicotinamide]
489 nM	–	–	O=C(Nc1ccc2sc(CO)nc2c1F)c1ccc(OCC(F)(F)F)nc1 [Example 43, N-[4-fluoro-2-(hydroxymethyl)-1,3-benzothiazol-5-yl]-6-(2,2,2-trifluoroethoxy)nicotinamide]
904 nM	–	–	O=C(Nc1ccc2sc(CO)nc2c1F)c1ccc(C(F)(F)F)nc1 [Example 42, N-[4-fluoro-2-(hydroxymethyl)-1,3-benzothiazol-5-yl]-6-(trifluoromethyl)nicotinamide]
